The source of these data is patent US20240245057A1, “INSECTICIDAL COMPOSITION FOR AGRICULTURAL OR HORTICULTURAL USE AND METHOD OF CONTROLLING AGRICULTURAL OR HORTICULTURAL PEST” (SDS BIOTECH K.K, priority 2021, published 2024).

Counter-ions that a name gives are not always drawn. Like-named read-outs stand apart in the source and are kept apart here.

Common to all, as to type: in vivo
The subject of experiment [1] is 3rd instar larvae of Helicoverpa armigera. Conditions: for insecticidal efficacy against the 3rd instar larvae of Helicoverpa armigera (in words): hydrochloride alone; for Number of dead insects/Number of test insects: 4 days. An excerpt: Each insecticidal protein solution obtained was admixed with prumycin hydrochloride prepared in Production Example 1 or kanosamine hydrochloride (Sigma-Aldrich Japan, LLC.) at a prescribed concentration to prepare a solution containing the insecticidal protein and prumycin hydrochloride or kanosamine hydrochloride. The obtained solution was admixed with artificial feed (Insecta LFS (manufactured by Nosan Corporation)) as shown in Tables 10 to 13 so that the content of each insecticidal protein was 0.063 to 8 μg/g of the artificial feed and the content of prumycin hydrochloride or kanosamine hydrochloride was 10 μg/g of the artificial feed. In this way, each artificial feed containing the insecticidal protein and prumycin hydrochloride or kanosamine hydrochloride was prepared. In addition, the above-described insecticidal protein solution, prumycin hydrochloride, or kanosamine hydrochloride alone was admixed with the artificial feed as shown in Tables 10 to 13 so that the content of each insecticidal protein was 0.063 to 8 μg/g of the artificial feed or the content of prumycin hydrochloride or kanosamine hydrochloride was […] of the artificial feed, respectively. In this way, each artificial feed containing the insecticidal protein, prumycin hydrochloride, or kanosamine hydrochloride alone was prepared. Each artificial feed containing or free of each substance thus obtained was placed on a petri dish (35 mm in diameter and 10 mm in height), and one 3rd instar larva of Helicoverpa armigera reared in a rearing room at 25° C. was released into each petri dish (10 replicates). Each petri dish was closed and kept at 25° ° C. for 4 days.
The number of dead insects was then macroscopically examined by observing the inside of each petri dish, and the LC50 value was calculated by the probit method. Next, based on the following equation, the ratio of the test plot without prumycin hydrochloride or kanosamine hydrochloride to the test plot with prumycin hydrochloride or kanosamine hydrochloride was calculated to determine the increase in insecticidal activity when prumycin hydrochloride or kanosamine hydrochloride was added.

Experiment [2] deals with 3rd instar larvae of Spodoptera litura. To be noted: for insecticidal efficacy against the 3rd instar larvae of Spodoptera litura (in words): hydrochloride alone; for Number of dead insects/Number of test insects: hydrochloride alone 10 μg/g Feed, insecticidal protein Absent, 5 days. As for the experimental part: Each artificial feed containing or free of each substance thus obtained was placed on a petri dish (90 mm in diameter and 15 mm in height), and ten 3rd instar larva of Spodoptera litura reared in a rearing room at 25° C. were released into each petri dish (3 replicates). Each petri dish was closed and kept at 25° C. for 5 days.
After that, the number of dead insects was macroscopically counted by observing the inside of the petri dish. The LC50 values were calculated by the probit method, and the increase in insecticidal activity due to the addition of prumycin or kanosamine was calculated based on the same formula as in Test Example 4 above.

The test system is the same in experiment [3]. In words: Test of efficacy against 3rd instar larvae of Spodoptera litura (dried Bt cultures mixed into artificial feed). To be noted: for Measured insecticidal rate (%): agent alone, 2 μg/g Feed, 25° C., 5 days; for insecticidal efficacy against the 3rd instar larvae of Spodoptera litura (in words): alone, application concentration of 2 μg/g feed. As for the experimental part:
A suspension of dried Btk culture or dried Bta culture was prepared by adding distilled water to the dried Btk culture or dried Bta culture prepared in Preparation Example 1. This suspension was admixed with prumycin hydrochloride prepared in Production Example 1 or kanosamine hydrochloride (Sigma-Aldrich Japan, LLC) at the prescribed concentration to prepare a solution. The obtained solution was admixed with artificial feed (Insecta LFS (manufactured by Nosan Corporation)) as shown in Tables 1 to 6 so that the content of the dried Btk culture or Bta culture was 0.2 to 2 mg/g of the artificial feed and the content of prumycin hydrochloride or kanosamine hydrochloride was 2 μg/g of the artificial feed. The artificial feed containing the dried Btk culture or dried Bta culture mixed with prumycin hydrochloride or kanosamine hydrochloride was placed on a petri dish (90 mm in diameter and 15 mm in height), and ten 3rd instar larvae of Spodoptera litura reared in a rearing room at 25° C. were released into the petri dish (triplicate). Each petri dish was closed and kept at 25° C. for 5 days.
The number of dead insects was then macroscopically counted by observing the inside of the petri dish, and the (measured) insecticidal rate (%) of the number of dead insects to the total number of reared insects was determined.
In addition, the suspension of dried Btk culture alone, the suspension of dried Bta alone, prumycin hydrochloride alone, kanosamine hydrochloride alone, or a combination of prumycin hydrochloride and kanosamine hydrochloride was added to the artificial feed to achieve the application concentration per g of the artificial feed as shown in Tables 1 to 6. Except the above, ten 3rd instar larvae of Spodoptera litura were released into a petri dish (triplicate) and kept at 25° ° C. for 5 days, as in the above Example.
The inside of the petri dish was then observed and the (measured) insecticidal rate (%) was determined in the same way as in the above Example.
The expected theoretical insecticidal rate (%) when treated with the dried Btk culture or dried Bta culture mixed with prumycin hydrochloride or kanosamine hydrochloride was determined by Colby's calculation formula ([…]). […]
The presence or absence of synergistic effect was determined by comparing the theoretical and measured insecticidal rates (%) in the case of using the dried Btk culture or dried Bta culture in combination with prumycin hydrochloride or kanosamine hydrochloride.
Specifically, the case where the measured value was larger than the theoretical value was judged as “having a synergistic effect”, and the case where the measured value was equal to or smaller than the theoretical value was judged as “having no synergetic effect” with respect to the insecticidal rate (%).

Setting [4] is: hydrochloride alone 10 μg/g Feed, insecticidal protein Absent.

As for `CC(N)C(=O)NC1COC(O)C(N)C1O` [Prumycin hydrochloride, 4-N-D-alanyl-2,4-diamino-2,4-dideoxyarabinose], the “insecticidal efficacy against the 3rd instar larvae of Helicoverpa armigera (in words)” value in experiment [1] is listed as “no insecticidal efficacy”. Moreover, the “Number of dead insects/Number of test insects” value in experiment [1] (setting [4]) and in experiment [2] was 0/10 each time. The “insecticidal efficacy against the 3rd instar larvae of Spodoptera litura (in words)” value in experiment [2] and in experiment [3] was “no insecticidal efficacy” throughout. In addition, the “Measured insecticidal rate (%)” value in experiment [3] was determined as 0.0%.

Take `N[C@H]1[C@H](O)[C@@H](CO)OC(O)[C@@H]1O` (stereo partly drawn) [Kanosamine hydrochloride, 3-amino-3-deoxy-D-glucopyranose]: the “insecticidal efficacy against the 3rd instar larvae of Helicoverpa armigera (in words)” value in experiment [1] is listed as “no insecticidal efficacy”. For the same compound, in experiment [1] (setting [4]), the “Number of dead insects/Number of test insects” value is given as 0/10. In addition, in experiment [2], the “insecticidal efficacy against the 3rd instar larvae of Spodoptera litura (in words)” value is listed as “no insecticidal efficacy” and the “Number of dead insects/Number of test insects” value was 0/10. Moreover, in experiment [3], the “Measured insecticidal rate (%)” value is reported as 0.0% and the “insecticidal efficacy against the 3rd instar larvae of Spodoptera litura (in words)” value is “no insecticidal efficacy”.

“Cry1A(c): Bacillus thuringiensis insecticidal protein expressed and purified in E. coli”: the “Number of dead insects/Number of test insects” value in experiment [1] (insecticidal protein alone 0.063 μg/g Feed) was 0/10; in experiment [1] (insecticidal protein alone 0.125 μg/g Feed), 0/10; in experiment [1] (insecticidal protein alone 0.25 μg/g Feed) it was 0/10; in experiment [1] (insecticidal protein alone 0.5 μg/g Feed), 1/10; in experiment [1] (insecticidal protein alone 1 μg/g Feed), 6/10; in experiment [1] (insecticidal protein alone 2 μg/g Feed), 7/10.
